Laboratory results as given in PubChem BioAssay AID1963958 (Molecular Pharmacology Branch, DTP, NCI, 2024).

Tested on: MDA-MB-231 multicell spheroids, viability
Test: Anticancer human tumor MDA-MB-231 cell line growth inhibition [PI3K];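 further: spheroids exposed to agents for seven days before reading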;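 on viability, T/C: percent of vehicle control luminescence with DMSO treated spheroids as 100%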
Details: for IC50: curve of first compound; for viability, T/C: stronger effect = lower value
Method in brief: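 Targeted small molecules plus PI3K inhibitors, half-log dose series from Cmax (default top 10 microM), were applied to heterotypic spheroids of cancer cells with HUVEC and MSCs. Viability indicated growth inhibition.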

[1] = second compound 0.0316 µM, first compound 0.0316 µM
[2] = second compound 0.0316 µM, first compound 0.1 µM
[3] = second compound 0.0316 µM, first compound 0.316 µM
[4] = second compound 0.0316 µM, first compound 1 µM
[5] = second compound 0.0316 µM, first compound 3.16 µM
[6] = second compound 0.0316 µM, first compound 10 µM
[7] = second compound 0.1 µM, first compound 0.0316 µM
[8] = second compound 0.1 µM, first compound 0.1 µM
[9] = second compound 0.1 µM, first compound 0.316 µM
[10] = second compound 0.1 µM, first compound 1 µM
[11] = second compound 0.1 µM, first compound 3.16 µM
[12] = second compound 0.1 µM, first compound 10 µM
[13] = second compound 0.316 µM, first compound 0.0316 µM
[14] = second compound 0.316 µM, first compound 0.1 µM
[15] = second compound 0.316 µM, first compound 0.316 µM
[16] = second compound 0.316 µM, first compound 1 µM
[17] = second compound 0.316 µM, first compound 3.16 µM
[18] = second compound 0.316 µM, first compound 10 µM
[19] = second compound 1 µM, first compound 0.0316 µM
[20] = second compound 1 µM, first compound 0.1 µM
[21] = second compound 1 µM, first compound 0.316 µM
[22] = second compound 1 µM, first compound 1 µM
[23] = second compound 1 µM, first compound 3.16 µM
[24] = second compound 1 µM, first compound 10 µM
[25] = second compound 3.16 µM, first compound 0.0316 µM
[26] = second compound 3.16 µM, first compound 0.1 µM
[27] = second compound 3.16 µM, first compound 0.316 µM
[28] = second compound 3.16 µM, first compound 1 µM
[29] = second compound 3.16 µM, first compound 3.16 µM
[30] = second compound 3.16 µM, first compound 10 µM
[31] = second compound 10 µM, first compound 0.0316 µM
[32] = second compound 10 µM, first compound 0.1 µM
[33] = second compound 10 µM, first compound 0.316 µM
[34] = second compound 10 µM, first compound 1 µM
[35] = second compound 10 µM, first compound 3.16 µM
[36] = second compound 10 µM, first compound 10 µM

C#Cc1c(F)ccc2cc(O)cc(-c3ncc4c(N5CC6CCC(C5)N6)nc(OCC56CCCN5CC(F)C6)nc4c3F)c12 (stereo not given) + Cc1nc(NC(=O)N2CCCC2C(N)=O)sc1-c1ccnc(C(C)(C)C(F)(F)F)c1
IC50 (second compound 0.0316 µM): > 10 µM
IC50 (second compound 0.1 µM): 7.62 µM
IC50 (second compound 0.316 µM): 5.67 µM
IC50 (second compound 1 µM): 1.7 µM
IC50 (second compound 3.16 µM): 0.847 µM
IC50 (second compound 10 µM): 0.23 µM
viability, T/C [1]: 106%
viability, T/C [2]: 96%
viability, T/C [3]: 101%
viability, T/C [4]: 68.3%
viability, T/C [5]: 75.6%
viability, T/C [6]: 54.9%
viability, T/C [7]: 88.8%
viability, T/C [8]: 87.6%
viability, T/C [9]: 85.4%
viability, T/C [10]: 73%
viability, T/C [11]: 65.5%
viability, T/C [12]: 45.2%
viability, T/C [13]: 77.7%
viability, T/C [14]: 82.8%
viability, T/C [15]: 69.4%
viability, T/C [16]: 60.4%
viability, T/C [17]: 62%
viability, T/C [18]: 42%
viability, T/C [19]: 74.1%
viability, T/C [20]: 69.8%
viability, T/C [21]: 67.3%
viability, T/C [22]: 55.2%
viability, T/C [23]: 43.3%
viability, T/C [24]: 33.3%
viability, T/C [25]: 69.6%
viability, T/C [26]: 65.5%
viability, T/C [27]: 53.4%
viability, T/C [28]: 49.6%
viability, T/C [29]: 42%
viability, T/C [30]: 28%
viability, T/C [31]: 64.2%
viability, T/C [32]: 58.4%
viability, T/C [33]: 45.3%
viability, T/C [34]: 36.9%
viability, T/C [35]: 32%
viability, T/C [36]: 18.1%

C=CC(=O)N1CCN(c2nc(=O)n(-c3c(C)ccnc3C(C)C)c3nc(-c4c(O)cccc4F)c(F)cc23)C(C)C1 (stereo not given) + Cc1nc(NC(=O)N2CCCC2C(N)=O)sc1-c1ccnc(C(C)(C)C(F)(F)F)c1
IC50 (second compound 0.0316 µM): > 10 µM
IC50 (second compound 0.1 µM): > 10 µM
IC50 (second compound 0.316 µM): > 10 µM
IC50 (second compound 1 µM): > 10 µM
IC50 (second compound 3.16 µM): 6.06 µM
IC50 (second compound 10 µM): 3.95 µM
viability, T/C [1]: 97.5%
viability, T/C [2]: 98.3%
viability, T/C [3]: 96.4%
viability, T/C [4]: 103%
viability, T/C [5]: 120%
viability, T/C [6]: 102%
viability, T/C [7]: 86.5%
viability, T/C [8]: 85.4%
viability, T/C [9]: 93.2%
viability, T/C [10]: 108%
viability, T/C [11]: 109%
viability, T/C [12]: 88.4%
viability, T/C [13]: 74.8%
viability, T/C [14]: 79.1%
viability, T/C [15]: 79%
viability, T/C [16]: 82.8%
viability, T/C [17]: 87.9%
viability, T/C [18]: 66.9%
viability, T/C [19]: 63%
viability, T/C [20]: 66.5%
viability, T/C [21]: 68.2%
viability, T/C [22]: 71.1%
viability, T/C [23]: 62.1%
viability, T/C [24]: 48.5%
viability, T/C [25]: 66.3%
viability, T/C [26]: 66.8%
viability, T/C [27]: 68%
viability, T/C [28]: 65.4%
viability, T/C [29]: 60.1%
viability, T/C [30]: 42.1%
viability, T/C [31]: 67.6%
viability, T/C [32]: 60.3%
viability, T/C [33]: 60%
viability, T/C [34]: 58.5%
viability, T/C [35]: 54.7%
viability, T/C [36]: 36.7%

CC(Cn1ccc(-c2ccc(C#N)c(Cl)c2)n1)NC(=O)c1cc(C(C)O)[nH]n1 (stereo not given) + Cc1nc(NC(=O)N2CCCC2C(N)=O)sc1-c1ccnc(C(C)(C)C(F)(F)F)c1
IC50 (second compound 0.0316 µM): > 10 µM
IC50 (second compound 0.1 µM): > 10 µM
IC50 (second compound 0.316 µM): > 10 µM
IC50 (second compound 1 µM): > 10 µM
IC50 (second compound 3.16 µM): > 10 µM
IC50 (second compound 10 µM): > 10 µM
viability, T/C [1]: 92.9%
viability, T/C [2]: 88.3%
viability, T/C [3]: 98.9%
viability, T/C [4]: 93.5%
viability, T/C [5]: 86.4%
viability, T/C [6]: 83.3%
viability, T/C [7]: 86.8%
viability, T/C [8]: 78.8%
viability, T/C [9]: 87%
viability, T/C [10]: 89.3%
viability, T/C [11]: 86.2%
viability, T/C [12]: 74.5%
viability, T/C [13]: 73.2%
viability, T/C [14]: 71.6%
viability, T/C [15]: 77.4%
viability, T/C [16]: 72.5%
viability, T/C [17]: 68.2%
viability, T/C [18]: 64.8%
viability, T/C [19]: 68.6%
viability, T/C [20]: 70.9%
viability, T/C [21]: 67.1%
viability, T/C [22]: 72.3%
viability, T/C [23]: 66.6%
viability, T/C [24]: 59.8%
viability, T/C [25]: 68.4%
viability, T/C [26]: 67.3%
viability, T/C [27]: 68.7%
viability, T/C [28]: 64.6%
viability, T/C [29]: 61.9%
viability, T/C [30]: 56.6%
viability, T/C [31]: 68.3%
viability, T/C [32]: 58%
viability, T/C [33]: 60.3%
viability, T/C [34]: 64.2%
viability, T/C [35]: 62.8%
viability, T/C [36]: 49.8%

CC1(C)CCC(Nc2ncc(C(F)(F)F)c(-c3c[nH]c4c(P(C)(C)=O)c(C#N)ccc34)n2)CN1 (stereo not given) + Cc1nc(NC(=O)N2CCCC2C(N)=O)sc1-c1ccnc(C(C)(C)C(F)(F)F)c1
IC50 (second compound 0.0316 µM): 0.0316 µM
IC50 (second compound 0.1 µM): 0.0316 µM
IC50 (second compound 0.316 µM): < 0.0316 µM
IC50 (second compound 1 µM): < 0.0316 µM
IC50 (second compound 3.16 µM): < 0.0316 µM
IC50 (second compound 10 µM): < 0.0316 µM
viability, T/C [1]: 47.6%
viability, T/C [2]: 42.8%
viability, T/C [3]: 47.6%
viability, T/C [4]: 51.2%
viability, T/C [5]: 54.6%
viability, T/C [6]: 4.85%
viability, T/C [7]: 48.5%
viability, T/C [8]: 44.1%
viability, T/C [9]: 45.2%
viability, T/C [10]: 49.9%
viability, T/C [11]: 52.5%
viability, T/C [12]: 5.6%
viability, T/C [13]: 44.5%
viability, T/C [14]: 42.7%
viability, T/C [15]: 44.7%
viability, T/C [16]: 45.5%
viability, T/C [17]: 47.5%
viability, T/C [18]: 3.95%
viability, T/C [19]: 43.4%
viability, T/C [20]: 43.8%
viability, T/C [21]: 43.9%
viability, T/C [22]: 45.4%
viability, T/C [23]: 44.8%
viability, T/C [24]: 3.6%
viability, T/C [25]: 43.5%
viability, T/C [26]: 44%
viability, T/C [27]: 42.5%
viability, T/C [28]: 42.6%
viability, T/C [29]: 40.4%
viability, T/C [30]: 4.49%
viability, T/C [31]: 41.7%
viability, T/C [32]: 43.4%
viability, T/C [33]: 40.5%
viability, T/C [34]: 40.3%
viability, T/C [35]: 38.1%
viability, T/C [36]: 3.35%

Cn1nccc1Nc1nccc(-c2ccn(C(CO)c3ccc(Cl)c(F)c3)c(=O)c2)n1 (stereo not given) + Cc1nc(NC(=O)N2CCCC2C(N)=O)sc1-c1ccnc(C(C)(C)C(F)(F)F)c1
IC50 (second compound 0.0316 µM): 0.61 µM
IC50 (second compound 0.1 µM): 0.423 µM
IC50 (second compound 0.316 µM): 0.151 µM
IC50 (second compound 1 µM): 0.0881 µM
IC50 (second compound 3.16 µM): 0.0576 µM
IC50 (second compound 10 µM): < 0.0316 µM
viability, T/C [1]: 75.6%
viability, T/C [2]: 65%
viability, T/C [3]: 56.1%
viability, T/C [4]: 45.3%
viability, T/C [5]: 36.5%
viability, T/C [6]: 26%
viability, T/C [7]: 66.2%
viability, T/C [8]: 58.1%
viability, T/C [9]: 54%
viability, T/C [10]: 41.6%
viability, T/C [11]: 35.7%
viability, T/C [12]: 22.4%
viability, T/C [13]: 62.2%
viability, T/C [14]: 49.5%
viability, T/C [15]: 46.7%
viability, T/C [16]: 37.6%
viability, T/C [17]: 29.3%
viability, T/C [18]: 21.9%
viability, T/C [19]: 56.6%
viability, T/C [20]: 47.2%
viability, T/C [21]: 43.6%
viability, T/C [22]: 34.6%
viability, T/C [23]: 25.1%
viability, T/C [24]: 19.7%
viability, T/C [25]: 53.8%
viability, T/C [26]: 47.2%
viability, T/C [27]: 37.8%
viability, T/C [28]: 34.3%
viability, T/C [29]: 24.2%
viability, T/C [30]: 16.7%
viability, T/C [31]: 43.2%
viability, T/C [32]: 37.1%
viability, T/C [33]: 33%
viability, T/C [34]: 29.6%
viability, T/C [35]: 21.9%
viability, T/C [36]: 10.6%
